From article PMC3511023, “Peptides presenting the binding site of human CD4 for the HIV-1 envelope glycoprotein gp120” (Beilstein Journal of Organic Chemistry, 2012)
“Also recorded” adds a separate entry of the source. Bridges are numbered along the chain shown (N, C = ends). Where no end group is shown, it is not given here. [ ]: non-standard residue; d: D form.

Columns and labels:
[1] = test system: recombinant gp120 from HIV-1 strain IIIB; assay: Direct ELISA: binding of gp120 to His-tagged peptides on Ni-chelate plates; details: peptide coated at 4 µM on Ni-chelate plates; gp120(IIIB) 0.25 µg/mL, 2 h; absorbance at 492 nm, blank-corrected; Ar relative to CD4-M1 = 1; at least twice, each in duplicate
Method: Antibody buffer: Phosphate buffer pH 7.2 containing 1% BSA and 0.1% Tween 20. The wells of 96-well Ni-Chelate plates from Thermo Scientific were coated overnight at 4 °C with peptide solution (100 µL, 4 µM in coupling buffer). After unspecific binding had been blocked with a blocking buffer (1 h at room temperature, gentle agitation), the plates were washed twice. Plates were then incubated for 2 h with 100 µL/well gp120(IIIB) from ImmunoDiagnostics at 0.25 µg/mL (Figure 3, left), or in serial dilutions starting at 2 µg/mL (Figure 3, right) in sample buffer, and washed four times. Following incubation with 100 µL/well sheep-anti-HIV-1-gp120 (D7324) from Aalto Bio Reagents (1:5000 in antibody buffer) for 1 h at room temperature, plates were washed four times with washing buffer, incubated for 1 h at room temperature with 100 µL/well rabbit-anti-sheep-IgG peroxidase conjugate from Dianova (diluted 1:5000 with antibody buffer), and washed four times with washing buffer. Plates were developed with 100 µL/well substrate solution (1 mg/mL OPD in 0.03% H2O2/H2O) in the dark (approx. 20 min), and the reaction was stopped by addition of 2 M sulfuric acid (50 µL/well). Absorbances (A) were read at 492 nm by using a multichannel photometer (Infinite F200 from Tecan).
Relative Affinities (Ar) were calculated according to the following formula:
Ar = (Apeptide – Ablank) / (A1– Ablank)

gp120(MN) = details: CD4-M5 60 µM or sCD4 0.4 µg/mL pre-incubated 10 min with gp120(MN) 0.5 µg/mL; 2 h on X5-coated plate; absorbance at 492 nm; at least twice, each in duplicate
Method: The wells of 96-well Immulon 2HB plates from Thermo Labsystems were coated overnight at 4 °C with 100 µL mAb X5 (0.25 µg/mL in coating buffer). After unspecific binding had been blocked with blocking buffer (1 h at room temperature), the plates were washed twice. […] Absorbances (A) were read at 492 nm, and corrected for the respective blanks (wells without X5). All binding assays were performed at least twice, each time in duplicate.

Substance | binding to gp120(IIIB) (relative affinity Ar) [1] | enhancement of binding of gp120(MN) to the CD4i antibody X5 (gp120(MN))
CD4-M1: His6-tagged linear peptide presenting CD4 residues 22–64 | is recognized by gp120 | –
CD4-M2: His6-tagged cyclic (disulfide) peptide, CD4 residues 22–64, S23C, D63C | strongly enhanced | –
CD4-M3: CD4 residues 22–64, cyclic, F43A, R58A, R59A, S23C, D63C | largely abrogated; also recorded: complete loss of binding | –
CD4-M4: His6-tagged linear peptide presenting the CDR2-like loop of CD4, residues 34–48 (His6-IKILGNQGSFLTKGP) | only the longer peptide CD4-M1 is recognized by gp120 | –
CD4-M5: CD4 residues 34–48, cyclic through a disulfide between added cysteines (His6-CIKILGNQGSFLTKGPC; disulfide 1-17 (inferred)) | strongly enhanced | able to enhance binding of gp120 to the CD4i antibody mAb X5
CD4-M6: CD4 residues 34–48, cyclic, F43A | largely abrogated | –
CD4-M7: CD4 residues 34–48, cyclic, F43-D-Phe (His6-CIKILGNQGS[dF]LTKGPC; disulfide 1-17 (inferred)) | did not bind to gp120 | –
